These results are taken from article PMC9572083, “Hybrids of 1,4-Quinone with Quinoline Derivatives: Synthesis, Biological Activity, and Molecular Docking with DT-Diaphorase (NQO1)” (Molecules, 2022).

Structures are written as SMILES.

As a reminder, the IC50 is the midpoint of a concentration-inhibition curve.

T1 sequence (P15559 whole entry): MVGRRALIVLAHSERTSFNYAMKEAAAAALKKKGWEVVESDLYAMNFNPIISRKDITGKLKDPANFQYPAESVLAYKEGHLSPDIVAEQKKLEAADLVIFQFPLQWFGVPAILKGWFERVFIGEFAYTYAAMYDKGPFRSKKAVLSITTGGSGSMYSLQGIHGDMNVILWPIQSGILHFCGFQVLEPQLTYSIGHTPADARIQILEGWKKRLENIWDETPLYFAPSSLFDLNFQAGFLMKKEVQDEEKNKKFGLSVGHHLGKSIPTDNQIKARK

The first test concerns the target T1, NQO1 (DT-diaphorase, EC 1.6.5.5, human recombinant) (Homo sapiens, UniProt P15559).
T1 construct: purchased Sigma-Aldrich
Put plainly: NQO1 substrate NADPH recycling enzymatic assay. It counts as biochemical. To be noted: 11c vs 12c, 11e vs 12e. The procedure: The interaction between 1,4-quinone moiety of hybrid and NQO1 protein leads to reduction in quinone to hydroquinone and production of reactive oxide form (ROS). According to a literature method, the ability of hybrids 11–14 and streptonigrin (ST) to be a substrate for NQO1 was examined by measuring the oxidation of NADPH to NADP^+ [29, 32].
Compounds 11–14 (10 µmol/L) were tested as NQO1 substrates using the NADPH recycling assay according to the literature method. The recombinant NQO1 (DT-diaphorase, EC 1.6.5.5, human recombinant, Sigma-Aldrich) was used, and the oxidation of NADPH to NADP^+ was measured at the absorption wavelength of 340 nm on the BioTek 800TS microplate reader (BioKom, Janki, Poland). Compounds were dissolved in dimethyl sulfoxide (2 µL) and added to the 96-well plate. The NQO1 protein (1.4 µg/mL) in 50 mmol/L potassium phosphate buffer (pH = 7.4) was added to each well (198 µL) (Nunc Thermo Fisher Scientific, Waltham, MA, USA). Once the 96-well plate was filled with the assay solutions, except the NADPH solution, it was placed into the instrument and left to sit for 5 min before starting the measurements. The enzymatic reaction was initiated by automatically dispensing the NADPH solution into the wells, and data were recorded at 10 s intervals for 5 min at 25 °C. The linear part of the absorbance vs. time graphs (the first 20 s to 1 min) was fitted, and the slopes were calculated. NADPH oxidation rates were compared with reactions lacking the tested compound. Initial velocities were calculated, and data were expressed as µmol NADPH/µmol NQO1/min. All reactions were carried out at least in triplicate.
Consider `O=C1C(Cl)=C(Oc2cccc3ccc(N4CCCC4)nc23)C(=O)c2ncccc21` [Compound 11e, 6-chloro-7-{[2-(pyrrolidin-1-yl)quinolin-8-yl]oxy}quinoline-5,8-dione], for which the “Enzymatic conversion rate relative to the 2-methyl-5,8-quinolinedione analogue” value is 1.8 times.

Still in this test, the particulars now being: compound 10 µmol/L, pH 7.4, 25 °C, absorbance at 340 nm.
As to `O=C1C(Cl)=C(Oc2cccc3ccc(N4CCCC4)nc23)C(=O)c2ncccc21` [Compound 11e, 6-chloro-7-{[2-(pyrrolidin-1-yl)quinolin-8-yl]oxy}quinoline-5,8-dione], the “NQO1 activity (enzymatic conversion rate)” value was found to be 1082 ± 51 µmol NADPH/µmol NQO1/min.

Regarding `O=C1C(Cl)=C(Oc2cccc3ccc(N4CCOCC4)nc23)C(=O)c2cnccc21` [Compound 13f, 6-chloro-7-{[2-(morpholin-4-yl)quinolin-8-yl]oxy}isoquinoline-5,8-dione], the “NQO1 activity (enzymatic conversion rate)” value amounted to 143 ± 26 µmol NADPH/µmol NQO1/min.

Another test relates to Colo-829 cells. Put plainly: Cytotoxic activity, WST-1 assay, melanoma Colo-829. It counts as cell-based, human. To be noted: HFF-1 vs Colo-829. The text has this:
(§1) Anticancer activity of compounds 11–14 was designated against following human cancer cell lines: melanoma (Colo-829), ovarian cancer (SK-OV-3), breast cancer (MDA-MB-231, T47D and MCF-7), lung cancer (A549) and normal fibroblasts (HFF-1). As a reference substance, the doxorubicin was used. The results are presented in Table 1 as IC50, where IC50 means the concentration of tested compounds (µM) causing the growth inhibition of 50% for given tumor cells. The negative value (Neg.) means that the IC50 is higher than 30 µM. Selectivity index (SI) as the ratio of the IC50 for normal fibroblast (HFF-1) to IC50 of the corresponding cell line, is presented in Table S2.
(§2) Compounds 7–14 and doxorubicin were tested for cytotoxic activity in vitro against panel of human cancer cell lines: melanoma (Colo-829, ATCC, Rockville, MD, USA), ovarian cancer (SK-OV-3, ATCC, Rockville, MD, USA), breast cancer (T47D, MCF-7, and MDA-MB-231, ATCC, Rockville, MD, USA) and lung cancer (A549, ATCC, Rockville, MD, USA). The cultured cells were kept at 37 °C and 5% CO2. The cells were seeded (5 × 10^4 cells/well/[…] DMEM supplemented with 10% FCS and streptomycin/penicillin) using 96-well plates (Nunc Thermo Fisher Scientific, Waltham, MA, USA). The tested compounds 7–14 with the concentration of 1–100 µg/mL DMSO were inducted with the cancer cells for 72 h. The WST-1-formazan (proliferation reagent WST-1 assay, Roche Diagnostics, Mannheim, Germany) was detected using a microplate reader at 450 nm. Results were expressed as a mean value of at least three independent experiments performed in triplicate.
For `O=C1C(Cl)=C(Oc2cccc3ccc(N4CCCC4)nc23)C(=O)c2ncccc21` [Compound 11e, 6-chloro-7-{[2-(pyrrolidin-1-yl)quinolin-8-yl]oxy}quinoline-5,8-dione], the “SI (IC50 HFF-1/IC50 cancer line) Colo-829” value is recorded as 0.76.

Regarding `O=C1C(Cl)=C(Oc2cccc3ccc(N4CCOCC4)nc23)C(=O)c2cnccc21` [Compound 13f, 6-chloro-7-{[2-(morpholin-4-yl)quinolin-8-yl]oxy}isoquinoline-5,8-dione], the “SI (IC50 HFF-1/IC50 cancer line) Colo-829” value turned out to be 8.76.

The test is the same for the next values; noted with them: Homo sapiens; melanoma Colo-829, 72 h, WST-1.
In turn, `O=C1C(Cl)=C(Oc2cccc3ccc(N4CCCC4)nc23)C(=O)c2ncccc21` [Compound 11e, 6-chloro-7-{[2-(pyrrolidin-1-yl)quinolin-8-yl]oxy}quinoline-5,8-dione] had an IC50 of 15 ± 0.32 µM.

In turn, `O=C1C(Cl)=C(Oc2cccc3ccc(N4CCOCC4)nc23)C(=O)c2cnccc21` [Compound 13f, 6-chloro-7-{[2-(morpholin-4-yl)quinolin-8-yl]oxy}isoquinoline-5,8-dione] registered an IC50 of 2.1 ± 0.06 µM.

A further test has as its system SK-OV-3 cells. Put plainly: Cytotoxic activity, WST-1 assay, ovarian cancer SK-OV-3. Type of test: cell-based, human. As to conditions: HFF-1 vs SK-OV-3.
Description: as §1, §2
(In general: Formazan colour is commonly taken as a measure of viable cells.)
On to `O=C1C(Cl)=C(Oc2cccc3ccc(N4CCCC4)nc23)C(=O)c2ncccc21` [Compound 11e, 6-chloro-7-{[2-(pyrrolidin-1-yl)quinolin-8-yl]oxy}quinoline-5,8-dione], for which the “SI (IC50 HFF-1/IC50 cancer line) SK-OV-3” value was determined as 6.66.

For the molecule `O=C1C(Cl)=C(Oc2cccc3ccc(N4CCOCC4)nc23)C(=O)c2cnccc21` [Compound 13f, 6-chloro-7-{[2-(morpholin-4-yl)quinolin-8-yl]oxy}isoquinoline-5,8-dione], the “SI (IC50 HFF-1/IC50 cancer line) SK-OV-3” value came out at 14.95.

The test is the same for the next values; noted with them: Homo sapiens; ovarian cancer SK-OV-3, 72 h, WST-1.
The molecule `O=C1C(Cl)=C(Oc2cccc3ccc(N4CCCC4)nc23)C(=O)c2ncccc21` [Compound 11e, 6-chloro-7-{[2-(pyrrolidin-1-yl)quinolin-8-yl]oxy}quinoline-5,8-dione] had an IC50 of 1.72 ± 0.09 µM.

Molecule `O=C1C(Cl)=C(Oc2cccc3ccc(N4CCOCC4)nc23)C(=O)c2cnccc21` [Compound 13f, 6-chloro-7-{[2-(morpholin-4-yl)quinolin-8-yl]oxy}isoquinoline-5,8-dione] gave an IC50 of 1.23 ± 0.08 µM.

Another test relates to MDA-MB-231 cells. Put plainly: Cytotoxic activity, WST-1 assay, breast cancer MDA-MB-231. Type of test: cell-based, human. As to conditions: HFF-1 vs MDA-MB-231.
Description: as §1, §2
For `O=C1C(Cl)=C(Oc2cccc3ccc(N4CCCC4)nc23)C(=O)c2ncccc21` [Compound 11e, 6-chloro-7-{[2-(pyrrolidin-1-yl)quinolin-8-yl]oxy}quinoline-5,8-dione], the “SI (IC50 HFF-1/IC50 cancer line) MDA-MB-231” value is reported as 5.81.

`O=C1C(Cl)=C(Oc2cccc3ccc(N4CCOCC4)nc23)C(=O)c2cnccc21` [Compound 13f, 6-chloro-7-{[2-(morpholin-4-yl)quinolin-8-yl]oxy}isoquinoline-5,8-dione]: the “SI (IC50 HFF-1/IC50 cancer line) MDA-MB-231” value worked out at 141.46.

Still in this test, the particulars now being: Homo sapiens; breast cancer MDA-MB-231, 72 h, WST-1.
Molecule `O=C1C(Cl)=C(Oc2cccc3ccc(N4CCCC4)nc23)C(=O)c2ncccc21` [Compound 11e, 6-chloro-7-{[2-(pyrrolidin-1-yl)quinolin-8-yl]oxy}quinoline-5,8-dione] showed an IC50 of 1.97 ± 0.13 µM.

As to `O=C1C(Cl)=C(Oc2cccc3ccc(N4CCOCC4)nc23)C(=O)c2cnccc21` [Compound 13f, 6-chloro-7-{[2-(morpholin-4-yl)quinolin-8-yl]oxy}isoquinoline-5,8-dione], 0.13 ± 0.05 µM corresponded to half-maximal inhibition (IC50).

For a further test, the system named is T47D cells. Nature of the test: Cytotoxic activity, WST-1 assay, breast cancer T47D. To be noted: HFF-1 vs T47D. Type of test: cell-based, human.
Description: as §1, §2
In the case of `O=C1C(Cl)=C(Oc2cccc3ccc(N4CCCC4)nc23)C(=O)c2ncccc21` [Compound 11e, 6-chloro-7-{[2-(pyrrolidin-1-yl)quinolin-8-yl]oxy}quinoline-5,8-dione], the “SI (IC50 HFF-1/IC50 cancer line) T47D” value is given as 0.55.

With `O=C1C(Cl)=C(Oc2cccc3ccc(N4CCOCC4)nc23)C(=O)c2cnccc21` [Compound 13f, 6-chloro-7-{[2-(morpholin-4-yl)quinolin-8-yl]oxy}isoquinoline-5,8-dione], the “SI (IC50 HFF-1/IC50 cancer line) T47D” value was found to be 8.55.

The test is the same for the next values; noted with them: Homo sapiens; breast cancer T47D, 72 h, WST-1.
`O=C1C(Cl)=C(Oc2cccc3ccc(N4CCCC4)nc23)C(=O)c2ncccc21` [Compound 11e, 6-chloro-7-{[2-(pyrrolidin-1-yl)quinolin-8-yl]oxy}quinoline-5,8-dione] registered an IC50 of 20.8 ± 1.03 µM.

In turn, `O=C1C(Cl)=C(Oc2cccc3ccc(N4CCOCC4)nc23)C(=O)c2cnccc21` [Compound 13f, 6-chloro-7-{[2-(morpholin-4-yl)quinolin-8-yl]oxy}isoquinoline-5,8-dione] yielded an IC50 of 2.15 ± 0.06 µM.

The next test has as its system MCF-7 cells. Put plainly: Cytotoxic activity, WST-1 assay, breast cancer MCF-7. Type of test: cell-based, human. To be noted: HFF-1 vs MCF-7.
Description: as §1, §2
As for `O=C1C(Cl)=C(Oc2cccc3ccc(N4CCCC4)nc23)C(=O)c2ncccc21` [Compound 11e, 6-chloro-7-{[2-(pyrrolidin-1-yl)quinolin-8-yl]oxy}quinoline-5,8-dione], the “SI (IC50 HFF-1/IC50 cancer line) MCF-7” value came to 5.64.

Turning to `O=C1C(Cl)=C(Oc2cccc3ccc(N4CCOCC4)nc23)C(=O)c2cnccc21` [Compound 13f, 6-chloro-7-{[2-(morpholin-4-yl)quinolin-8-yl]oxy}isoquinoline-5,8-dione], the “SI (IC50 HFF-1/IC50 cancer line) MCF-7” value was found to be 17.85.

Staying with this test, now noted: Homo sapiens, MCF7; breast cancer MCF-7, 72 h, WST-1.
`O=C1C(Cl)=C(Oc2cccc3ccc(N4CCCC4)nc23)C(=O)c2ncccc21` [Compound 11e, 6-chloro-7-{[2-(pyrrolidin-1-yl)quinolin-8-yl]oxy}quinoline-5,8-dione] gave an IC50 of 2.03 ± 0.03 µM.

Turning to `O=C1C(Cl)=C(Oc2cccc3ccc(N4CCOCC4)nc23)C(=O)c2cnccc21` [Compound 13f, 6-chloro-7-{[2-(morpholin-4-yl)quinolin-8-yl]oxy}isoquinoline-5,8-dione], the IC50 stood at 1.03 ± 0.19 µM.

Staying with this test, now noted: fold more active against MCF-7 than A549.
`O=C1C(Cl)=C(Oc2cccc3ccc(N4CCCC4)nc23)C(=O)c2ncccc21` [Compound 11e, 6-chloro-7-{[2-(pyrrolidin-1-yl)quinolin-8-yl]oxy}quinoline-5,8-dione]: the “Activity against MCF-7 relative to A549” value is reported as ~6 times.

Another test relates to A549 cells. Nature of the test: Cytotoxic activity, WST-1 assay, lung cancer A549. Type of test: cell-based, human. As to conditions: HFF-1 vs A549.
Description: as §1, §2
Turning to `O=C1C(Cl)=C(Oc2cccc3ccc(N4CCCC4)nc23)C(=O)c2ncccc21` [Compound 11e, 6-chloro-7-{[2-(pyrrolidin-1-yl)quinolin-8-yl]oxy}quinoline-5,8-dione], the “SI (IC50 HFF-1/IC50 cancer line) A549” value is given as 0.94.

`O=C1C(Cl)=C(Oc2cccc3ccc(N4CCOCC4)nc23)C(=O)c2cnccc21` [Compound 13f, 6-chloro-7-{[2-(morpholin-4-yl)quinolin-8-yl]oxy}isoquinoline-5,8-dione]: the “SI (IC50 HFF-1/IC50 cancer line) A549” value is listed as 15.07.

The test is the same for the next values; noted with them: Homo sapiens; lung cancer A549, 72 h, WST-1.
`O=C1C(Cl)=C(Oc2cccc3ccc(N4CCCC4)nc23)C(=O)c2ncccc21` [Compound 11e, 6-chloro-7-{[2-(pyrrolidin-1-yl)quinolin-8-yl]oxy}quinoline-5,8-dione]: the IC50 was found to be 12.1 ± 1.06 µM.

`O=C1C(Cl)=C(Oc2cccc3ccc(N4CCOCC4)nc23)C(=O)c2cnccc21` [Compound 13f, 6-chloro-7-{[2-(morpholin-4-yl)quinolin-8-yl]oxy}isoquinoline-5,8-dione] returned an IC50 of 1.22 ± 0.08 µM.

The test system of another test is HFF-1 cells. Put plainly: Cytotoxic activity, WST-1 assay, normal fibroblasts HFF-1. Type of test: cell-based. To be noted: Homo sapiens, normal fibroblasts HFF-1, 72 h.
Description: as §1, §2
For `O=C1C(Cl)=C(Oc2cccc3ccc(N4CCCC4)nc23)C(=O)c2ncccc21` [Compound 11e, 6-chloro-7-{[2-(pyrrolidin-1-yl)quinolin-8-yl]oxy}quinoline-5,8-dione], it took 11.5 ± 0.69 µM to reach half-maximal inhibition (IC50).

The molecule `O=C1C(Cl)=C(Oc2cccc3ccc(N4CCOCC4)nc23)C(=O)c2cnccc21` [Compound 13f, 6-chloro-7-{[2-(morpholin-4-yl)quinolin-8-yl]oxy}isoquinoline-5,8-dione] came in with an IC50 of 18.4 ± 0.35 µM.
